Reference: patent publication US20250319139A1, “METHODS FOR TREATING NEUROINFLAMMATION” (University of Virginia Patent Foundation, priority 2021, published 2025)

Key:
Assay type in all cases: in vivo, mouse
C57BL/6J mice = assay: Barnes maze test, old mice; conditions: old mice with exercise and surgery; intraperitoneal valeric acid once a week vs normal saline
Text: After one-week acclimation, old mice (18-month old male C57BL/6J mice) weighing 30-36 g were used in three studies. In the first experiment, old mice were randomly assigned to: 1) control group, 2) exercise group in which mice had 4-week exercise at 35-40% maximal capacity, 3) surgery group, and 4) Exe+Sur group in which mice had 4-week exercise at 35-40% maximal capacity before surgery. The animals were used for learning and memory tests starting 4 days after the surgery (n=12) or their brains were harvested for biochemical assays at 48 h after the surgery (n=10 or 12), for immunofluorescent staining at 48 h and 19 days after the surgery (n=6), and for Golgi staining at 19 days after the surgery (n=8). Blood and feces from mice of the 4 groups were harvested for SCFA measurement at 7 days after the surgery (n=7) and for 16S analyses at 3 and 7 days after the surgery (n=8) or at the end of 4-week exercise protocol or at the corresponding time in the first 2 groups (n=16). Mice for tissue harvesting were different cohorts that were used for learning and memory tests. In second experiment, old mice were randomly assigned to: 1) Trans-Old Control+Sur group, and 2) Trans-Old Exe+Sur group. […] Learning and memory were evaluated from 4 days after surgery (n=10). […] The latency to enter the target box during each trial was recorded by an ANY-Maze video tracking system (SD Instruments).

[1] = tested on: newly generated brain cells; assay: BrdU immunofluorescent staining, brain cell genesis; conditions: young adult mice with exercise and surgery; intraperitoneal valeric acid
Method: Seven days after surgery, mice were given 7 consecutive intraperitoneal injections of 80 mg/kg 5′-bromo-2′-deoxyuridine (BrdU) at 12:00 once daily as previously described. Mice were sacrificed 5 days later for harvesting hippocampus. Hippocampus was fixed in 4% paraformaldehyde in 0.1 M phosphate-buffered saline at 4° C. for 24 h and embedded in paraffin. Five-micron thick coronal brain sections were cut sequentially from Bregma −2 to −4 mm. Antigen retrieval was performed by incubating sections with sodium citrate buffer containing 10 mM sodium citrate, 0.05% Tween 20 (pH 6.0) at 95-100° C. for 20 min. DNA denaturation was done by incubating with 1 N HCl on ice for 3 min, 2 N HCL at room temperature for 3 min, and at 37° C. for 6 min. Sections were blocked with 5% donkey serum in phosphate-buffered saline (PBS) containing 0.5% triton-X 100 for 2 h at room temperature. […] Images were acquired with a fluorescence microscope with a charge-coupled device camera (High Mag Olympus BX51) and a LSM710 confocal microscopy system (ZEISS). […] The number of all cells positively stained for an interested marker or the combination of two markers in the sub-granular zone of the dentate gyrus of each section was counted. The quantitative analyses were performed in a blinded manner.

[2] = Cortical valeric acid quantification by HPLC; conditions: 9-week old mice, intraperitoneal valeric acid vs normal saline; 24 h after the last injection
Method: The amount of valeric acid in the cerebral cortex harvested 24 h after the last intraperitoneal injection of valeric acid was determined by a method similar to that reported before. Briefly, 0.1 g cerebral cortex was homogenized in 500 μl aqueous acetonitrile. Supernatant was extracted with 8 ml extraction buffer (hexane: diethyl ether=1:1) and centrifuged at 1800 g for 5 min. 7.5 ml supernatant was collected, mixed with 93 μl 20 mM KOH in methanol and dried at 40° C. under nitrogen gas. Dried residue was reconstituted in 50 μl 2.5% 18-Crown-6 in acetonitrile and was further derivatized with 9-chloromethylanthracene in acetonitrile with addition of tetramethylammonium hydroxide. Finally, 30 μl derivatization solution was loaded to Acclaim C18 column (3 μm, 4.6×100 mm, Thermo Scientific) and separated in Ultimate 3000 high performance liquid chromatograph (HPLC, Thermo Scientific) equipped with UV-visible detector. The peak of derivatized valeric acid was detected at a wavelength of 254 nm. 2-Ethylbutyric acid (2-EA) was added as an internal reference control. The peak area of valeric acid was measured as mAU*min and its peak area of each sample was normalized with that of 2-EA in the sample. Final results were presented as ratios of valeric acid group to NS group.

amount of valeric acid in the brain (cerebral cortex) [2]: increased
Compound: CCCCC(=O)O [valeric acid]
performance in Barnes maze (C57BL/6J mice): impaired the performance
exercise attenuation of the decrease of newly generated brain cells [1]: this attenuation was blocked
